From patent publication US20100092534A1, “Combination Local Delivery Using a Stent” (Medtronic Vascular, Inc., priority 2008, published 2010) come the findings set out here.

The test system of data set [1] is tissue factor (TF). As to the kind of experiment: Relative gene expression of TF in stented porcine vessels. In kind it is in vivo. The settings on record: local delivery from a vascular stent; several days after stenting; FIG. 1B. The text has this: FIG. 1: Relative gene expression of (A) MCP-1 and (B) TF in porcine vessels that were stented with zotarolimus coated stents compared with uncoated stents and stents coated with fluocinolone. The drug doses are indicated in ug/mm^2. As such, delivery of zotarolimus locally from a vascular stent increases the expression of TF in stented vessels. The increased expression can be seen several days after the stenting procedure was preformed (FIG. 1B). In one embodiment, a dose titration experiment can be conducted to determine the optimal dosage for combination of zotarolimus (e.g. anti-proliferative drug) and fluocinolone (e.g. anti-inflammatory drug). At an optimal dose zotarolimus can inhibit neointimal hyperplasia via inhibition of smooth muscle cells proliferation, while maintaining low levels of MCP-1 and TF due to the inhibitory effect of fluocinolone. The evaluation of MCP-1 and TF can be performed by conducting pre-clinical, porcine study using stents loaded with escalating doses of at least zotarolimus or in combination with escalating dosages of fluocinolone and evaluating the expression of MCP-1 and TF in the vessels stented with these stents. […] The stented vessels can be excised 7 days post stenting and the expression of TF and MCP-1 can be evaluated via real time-PCR using porcine primers and probes, allowing the quantative measurement at transcriptional level.

Data set [2] in a line: Solubility in ethanol (coating solvent). The class given is physicochemical. The source says:
In the following Example, ethanol is chosen as the solvent of choice. The coating to be applied to the stent is a bioactive agent combination, consisting of a mTOR inhibitor and a glucocorticoid. The mTOR inhibitor is zotarolimus. The glucocorticoid is fluocinolone. […] Persons having ordinary skill in the art of polymer chemistry can easily pair the appropriate solvent system to the polymer-bioactive agent(s) combination and achieve optimum results with no more than routine experimentation.

Data set [3] deals with monocyte chemoattractant protein-1 (MCP-1). Briefly: Relative gene expression of MCP-1 (mRNA) in stented porcine vessels. The class given is in vivo. Conditions: local delivery from a vascular stent; 7 days after stenting; compared to a bare metal stent; measured on mRNA; FIG. 1A. The text has this:
FIG. 1: Relative gene expression of (A) MCP-1 and (B) TF in porcine vessels that were stented with zotarolimus coated stents compared with uncoated stents and stents coated with fluocinolone. The drug doses are indicated in ug/mm^2. FIG. 2: Relative gene expression of MCP-1 in porcine vessels that were stented with stents coated with zotarolimus alone compared to stents coated with zotarolimus combined with fluocinolone or fluocinolone alone. The drug doses are indicated in ug/mm^2. […] Furthermore, following stent placement, MCP-1 levels in plasma increase after several days and are more likely to be elevated at follow-up 6 months later in patients who have restenosis. In one embodiment, a dose titration experiment can be conducted to determine the optimal dosage for combination of zotarolimus (e.g. anti-proliferative drug) and fluocinolone (e.g. anti-inflammatory drug). At an optimal dose zotarolimus can inhibit neointimal hyperplasia via inhibition of smooth muscle cells proliferation, while maintaining low levels of MCP-1 and TF due to the inhibitory effect of fluocinolone. […] The stented vessels can be excised 7 days post stenting and the expression of TF and MCP-1 can be evaluated via real time-PCR using porcine primers and probes, allowing the quantative measurement at transcriptional level.

For `CO[C@H]1C[C@@H]2CC[C@@H](C)[C@@](O)(O2)C(=O)C(=O)N2CCCC[C@H]2C(=O)O[C@H]([C@H](C)C[C@@H]2CC[C@H](n3cnnn3)[C@H](OC)C2)CC(=O)[C@H](C)/C=C(\C)[C@@H](O)[C@@H](OC)C(=O)[C@H](C)C[C@H](C)/C=C/C=C/C=C/1C` [zotarolimus], the “expression of TF in stented vessels” value in data set [1] is on record as “increases”. Also, in data set [2], the solubility in ethanol entry is reported as “freely soluble”. Further, the “expression of monocyte chemoattractant protein-1 (MCP-1) in stented vessels” value in data set [3] was “increased”.
In the case of `CC1(C)O[C@@H]2C[C@H]3[C@@H]4C[C@H](F)C5=CC(=O)C=C[C@]5(C)[C@@]4(F)[C@@H](O)C[C@]3(C)[C@]2(C(=O)CO)O1` [fluocinolone], the solubility in ethanol entry in data set [2] is “freely soluble”.
